Legend:
[1] = molecular target: T1, Vascular endothelial growth factor receptor 2 (Homo sapiens, UniProt P35968); assay: Inhibition of human unphosphorylated N-terminal-His6 tagged VEGFR2 catalytic domain using 5-FAM-EEPLYWSFPAKKK-CONH2 as substrate after 60 mins by mobility shift assay
[2] = molecular target: T1, Vascular endothelial growth factor receptor 2; assay: Inhibition of human phosphorylated N-terminal-His6 tagged VEGFR2 catalytic domain using 5-FAM-EEPLYWSFPAKKK-CONH2 as substrate after 60 mins by mobility shift assay
[3] = molecular target: T1, Vascular endothelial growth factor receptor 2; settings: 100 uM

T1 sequence (P35968 whole entry, the tested form may be a part): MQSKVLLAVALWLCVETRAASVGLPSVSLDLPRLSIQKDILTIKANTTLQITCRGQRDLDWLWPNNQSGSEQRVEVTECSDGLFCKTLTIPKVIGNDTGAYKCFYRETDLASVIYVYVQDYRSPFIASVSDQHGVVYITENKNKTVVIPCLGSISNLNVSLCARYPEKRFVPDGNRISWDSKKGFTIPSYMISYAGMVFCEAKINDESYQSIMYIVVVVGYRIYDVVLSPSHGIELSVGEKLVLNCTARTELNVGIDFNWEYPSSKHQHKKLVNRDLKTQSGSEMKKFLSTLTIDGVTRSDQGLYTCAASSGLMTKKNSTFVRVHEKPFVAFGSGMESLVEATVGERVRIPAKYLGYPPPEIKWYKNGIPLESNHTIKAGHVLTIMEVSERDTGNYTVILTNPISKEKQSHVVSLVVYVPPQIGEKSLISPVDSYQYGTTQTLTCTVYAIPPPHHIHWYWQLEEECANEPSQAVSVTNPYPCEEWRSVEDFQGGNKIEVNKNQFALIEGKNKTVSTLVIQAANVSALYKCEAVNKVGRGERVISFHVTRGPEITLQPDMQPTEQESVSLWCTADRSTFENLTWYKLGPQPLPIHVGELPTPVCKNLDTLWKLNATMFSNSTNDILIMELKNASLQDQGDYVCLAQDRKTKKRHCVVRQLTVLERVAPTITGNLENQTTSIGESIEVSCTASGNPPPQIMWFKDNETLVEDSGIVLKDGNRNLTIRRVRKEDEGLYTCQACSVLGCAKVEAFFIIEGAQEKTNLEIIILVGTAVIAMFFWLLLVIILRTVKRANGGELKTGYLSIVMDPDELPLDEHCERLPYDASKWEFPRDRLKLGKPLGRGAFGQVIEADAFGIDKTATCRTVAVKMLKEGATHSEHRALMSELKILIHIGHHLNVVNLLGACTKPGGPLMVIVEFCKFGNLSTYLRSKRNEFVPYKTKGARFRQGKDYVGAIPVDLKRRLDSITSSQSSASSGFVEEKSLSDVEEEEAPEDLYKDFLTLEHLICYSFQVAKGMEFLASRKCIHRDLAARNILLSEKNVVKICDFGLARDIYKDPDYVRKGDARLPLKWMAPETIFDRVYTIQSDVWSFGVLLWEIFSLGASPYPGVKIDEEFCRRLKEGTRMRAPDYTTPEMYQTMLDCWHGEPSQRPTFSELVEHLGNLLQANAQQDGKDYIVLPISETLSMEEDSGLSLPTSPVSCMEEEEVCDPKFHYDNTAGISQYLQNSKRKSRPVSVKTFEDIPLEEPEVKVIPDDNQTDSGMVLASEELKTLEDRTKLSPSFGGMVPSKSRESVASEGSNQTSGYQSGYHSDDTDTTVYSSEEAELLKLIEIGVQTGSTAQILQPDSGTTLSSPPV

| IC50 [1] [µM] | IC50 [2] [µM] | Ki [1] [µM] | inhibition [3] [%] | Compound |
| --- | --- | --- | --- | --- |
| 4.4 | > 100 | – | – | O=C(Nc1cccc(C(F)(F)F)c1)Nc1ccccc1Cl |
| 0.62 | 0.86 | – | – | c1ccc2c3c([nH]c2c1)-c1n[nH]cc1CCC3 |
| 50 | > 100 | 25 | 8 | Cc1oc(-c2ccccc2)nc1COc1cccc(CO)c1 |

From ChEMBL document CHEMBL2069184, “A Back-to-Front Fragment-Based Drug Design Search Strategy Targeting the DFG-Out Pocket of Protein Tyrosine Kinases” (ACS Med Chem Lett, 2012)
